Test results as given in patent US4665022A (priority 1984, dated 1987).
Where two headings read alike, the source gives them in different places.

How the values were obtained:
[1] = biological target: nACh receptors in the cerebral cortex (Rattus norvegicus, UniProt Q05941); assay: biochemical; assay type: binding
[2] = biological target: nicotinic binding sites; design: species or system rat

Chain of nACh receptors in the cerebral cortex (Q05941 23-502): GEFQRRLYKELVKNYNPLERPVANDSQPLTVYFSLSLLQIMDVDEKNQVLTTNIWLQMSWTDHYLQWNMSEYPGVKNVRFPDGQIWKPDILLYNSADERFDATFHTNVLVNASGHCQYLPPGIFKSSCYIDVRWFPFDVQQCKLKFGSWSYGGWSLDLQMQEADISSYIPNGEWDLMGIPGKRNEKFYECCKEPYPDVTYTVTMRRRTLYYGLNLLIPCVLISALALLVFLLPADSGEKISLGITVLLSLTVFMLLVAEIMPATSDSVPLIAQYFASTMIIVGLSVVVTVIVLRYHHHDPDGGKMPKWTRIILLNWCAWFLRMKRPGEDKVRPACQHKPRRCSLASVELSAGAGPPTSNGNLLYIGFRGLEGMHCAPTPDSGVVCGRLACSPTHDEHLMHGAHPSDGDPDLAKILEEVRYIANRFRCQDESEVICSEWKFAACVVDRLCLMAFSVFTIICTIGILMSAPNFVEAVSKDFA

Molecule	Ki [1] [µM]	Ki ([1]; read-out: KI) [µM]	Ki [2] [µM]
CN1[C@@H]2C[C@@H](OC(=O)[C@H](CO)c3ccccc3)C[C@H]1[C@@H]1O[C@@H]12 [scopolamine]	> 10000	–	–
COc1cc2c3cc1Oc1cc(ccc1O)C[C@@H]1c4c(cc(OC)c(O)c4Oc4ccc(cc4)C[C@@H]3N(C)CC2)CC[N+]1(C)C [d-tubocurarine]	–	0.06	–
C[N+](C)(C)CCOC(N)=O [carbamyl choline]	–	0.2	–
alpha-bungarotoxin	–	0.00012	0.00013
